Experiment: Pre-bronchodilator FEV1 and percent predicted FEV1 by spirometry, change from baseline
Assay type: in vivo, human
Details: 400 mg BID
Description: Spirometry is a standard test to measure patients' lung function.
The primary endpoint was the proportion of patients with LOAC. The key secondary endpoint for the study was change in pre-bronchodilator FEV1 from baseline at EOT.
Reversibility is defined as an increase of the absolute FEV1 after administration of bronchodilator and is measured by spirometry as postbronchodilator increase in FEV1 in percent of the prebronchodilator FEV1. After spirometry for measuring prebronchodilator FEV1, participants were to receive 2-4 puffs of albuterol/salbutamol or levalbuterol/levosalbutamol from a primed MDI. The postbronchodilator spirometry may have been repeated several times within 30 minutes after administration of bronchodilator. Alternatively, and only if it was consistent with usual office practice (to be documented), reversibility may have been performed using inhalation of nebulized albuterol/salbutamol or levalbuterol/levosalbutamol.
Secondary endpoints included pre-bronchodilator FEV1 change from baseline at EOT, ACQ-5 score change from baseline, and AQLQ score change from baseline. Other secondary and exploratory endpoints are described in Table 2.

[1] = Week 12, baseline weight ≥90 kg
[2] = Week 12, smoking history Former
[3] = EOT (Week 12), all others, mITT
[4] = Week 2, before LOAC and OCS use, as observed, mITT
[5] = Week 2, observed/LOCF imputed, mITT
[6] = Week 2, on-site conventional spirometry as observed, mITT
[7] = Week 4, before LOAC and OCS use, as observed, mITT
[8] = Week 4, observed/LOCF imputed, mITT
[9] = Week 4, on-site conventional spirometry as observed, mITT
[10] = Week 6, before LOAC and OCS use, as observed, mITT
[11] = Week 6, observed/LOCF imputed, mITT
[12] = Week 6, on-site conventional spirometry as observed, mITT
[13] = Week 8, before LOAC and OCS use, as observed, mITT
[14] = Week 8, observed/LOCF imputed, mITT
[15] = Week 8, on-site conventional spirometry as observed, mITT
[16] = Week 10, before LOAC and OCS use, as observed, mITT
[17] = Week 10, observed/LOCF imputed, mITT
[18] = Week 10, on-site conventional spirometry as observed, mITT
[19] = Week 12 (EOT), MMRM supplementary analysis, mITT
[20] = Week 12, before LOAC and OCS use, as observed, mITT

CC(C)(C=C(C#N)C(=O)N1CCC[C@@H](n2nc(-c3ccc(Oc4ccccc4)cc3F)c3c(N)ncnc32)C1)N1CCN(C2COC2)CC1 (mixture of isomers) [rilzabrutinib, (R)-2-[3-[4-amino-3-(2-fluoro-4-phenoxy-phenyl)pyrazolo[3,4-d]pyrimidin-1-yl]piperidine-1-carbonyl]-4-methyl-4-[4-(oxetan-3-yl)piperazin-1-yl]pent-2-enenitrile]
Pre-bronchodilator FEV1 change from baseline, LS Mean [1]: -0.25 L | Pre-bronchodilator FEV1 change from baseline, LS Mean Diff vs. placebo [1]: -0.37 L | Pre-bronchodilator FEV1 change from baseline, Mean [1]: -0.17 L | Pre-bronchodilator FEV1 change from baseline, LS Mean (Week 12, female): 0.00 L | Pre-bronchodilator FEV1 change from baseline, LS Mean Diff vs. placebo (Week 12, female): 0.04 L | Pre-bronchodilator FEV1 change from baseline, Mean (Week 12, female): -0.01 L | Pre-bronchodilator FEV1 change from baseline, LS Mean (Week 12, male): -0.23 L | Pre-bronchodilator FEV1 change from baseline, LS Mean Diff vs. placebo (Week 12, male): -0.16 L | Pre-bronchodilator FEV1 change from baseline, Mean (Week 12, male): -0.08 L | Pre-bronchodilator FEV1 change from baseline, LS Mean [2]: -0.57 L | Pre-bronchodilator FEV1 change from baseline, LS Mean Diff vs. placebo [2]: -0.21 L | Pre-bronchodilator FEV1 change from baseline, Mean [2]: -0.36 L | Pre-bronchodilator FEV1 change from baseline, LS Mean (Week 12, smoking history Never): -0.05 L | Pre-bronchodilator FEV1 change from baseline, LS Mean Diff vs. placebo (Week 12, smoking history Never): 0.03 L | Pre-bronchodilator FEV1 change from baseline, Mean (Week 12, smoking history Never): 0.02 L | Difference vs. placebo, LS mean change in pre-bronchodilator FEV1 (L) at Week 12 (95% CI −0.17, 0.19, p=0.9466): 0.01 L | Change from baseline in pre-bronchodilator FEV1, LS Mean (SE) [3]: -0.05 L | Change from baseline in pre-bronchodilator FEV1, LS Mean Diff vs. placebo (95% CI) [3]: 0.03 L | Change from baseline in pre-bronchodilator FEV1, Mean (SD) (EOT (Week 12), all others, mITT, n=22): -0.02 L | Change from baseline in pre-bronchodilator FEV1, Mean (SD) (EOT (Week 12), low EOS (<0.15) and low FeNO (<25), mITT, n=3): -0.17 L | LS Mean change from baseline in pre-bronchodilator FEV1 (L) at Week 12 (N=32, mITT): −0.07 (0.08) L | Pre-bronchodilator FEV1, mean [4]: 2.20 L | Pre-bronchodilator FEV1, median [4]: 2.08 L | Pre-bronchodilator FEV1 change from baseline, Mean [4]: 0.08 L | Pre-bronchodilator FEV1 change from baseline, median [4]: 0.04 L | Pre-bronchodilator FEV1 percent change from baseline, mean [4]: 4.47% | Pre-bronchodilator FEV1 percent change from baseline, median [4]: 2.02% | Pre-bronchodilator FEV1, mean [5]: 2.20 L | Pre-bronchodilator FEV1, median [5]: 2.08 L | Pre-bronchodilator FEV1 change from baseline, LS Mean [5]: 0.06 L | Pre-bronchodilator FEV1 change from baseline, LS Mean Diff vs. placebo [5]: 0.00 L | Pre-bronchodilator FEV1 change from baseline, Mean [5]: 0.08 L | Pre-bronchodilator FEV1 change from baseline, median [5]: 0.04 L | Pre-bronchodilator FEV1, mean [6]: 2.20 L | Pre-bronchodilator FEV1, median [6]: 2.08 L | Pre-bronchodilator FEV1 change from baseline, Mean [6]: 0.08 L | Pre-bronchodilator FEV1 change from baseline, median [6]: 0.04 L | Pre-bronchodilator FEV1 percent change from baseline, mean [6]: 4.47% | Pre-bronchodilator FEV1 percent change from baseline, median [6]: 2.02% | Pre-bronchodilator FEV1, mean [7]: 2.05 L | Pre-bronchodilator FEV1, median [7]: 1.96 L | Pre-bronchodilator FEV1 change from baseline, Mean [7]: 0.07 L | Pre-bronchodilator FEV1 change from baseline, median [7]: 0.02 L | Pre-bronchodilator FEV1 percent change from baseline, mean [7]: 3.72% | Pre-bronchodilator FEV1 percent change from baseline, median [7]: 0.55% | Pre-bronchodilator FEV1, mean [8]: 2.07 L | Pre-bronchodilator FEV1, median [8]: 1.96 L | Pre-bronchodilator FEV1 change from baseline, LS Mean [8]: 0.08 L | Pre-bronchodilator FEV1 change from baseline, LS Mean Diff vs. placebo [8]: -0.01 L | Pre-bronchodilator FEV1 change from baseline, Mean [8]: 0.07 L | Pre-bronchodilator FEV1 change from baseline, median [8]: 0.02 L | Pre-bronchodilator FEV1, mean [9]: 2.05 L | Pre-bronchodilator FEV1, median [9]: 1.96 L | Pre-bronchodilator FEV1 change from baseline, Mean [9]: 0.07 L | Pre-bronchodilator FEV1 change from baseline, median [9]: 0.02 L | Pre-bronchodilator FEV1 percent change from baseline, mean [9]: 3.72% | Pre-bronchodilator FEV1 percent change from baseline, median [9]: 0.55% | Pre-bronchodilator FEV1, mean [10]: 2.24 L | Pre-bronchodilator FEV1, median [10]: 2.01 L | Pre-bronchodilator FEV1 change from baseline, Mean [10]: 0.09 L | Pre-bronchodilator FEV1 change from baseline, median [10]: 0.07 L | Pre-bronchodilator FEV1 percent change from baseline, mean [10]: 3.99% | Pre-bronchodilator FEV1 percent change from baseline, median [10]: 3.66% | Pre-bronchodilator FEV1, mean [11]: 2.24 L | Pre-bronchodilator FEV1, median [11]: 2.01 L | Pre-bronchodilator FEV1 change from baseline, LS Mean [11]: -0.03 L | Pre-bronchodilator FEV1 change from baseline, LS Mean Diff vs. placebo [11]: -0.03 L | Pre-bronchodilator FEV1 change from baseline, Mean [11]: 0.09 L | Pre-bronchodilator FEV1 change from baseline, median [11]: 0.07 L | Pre-bronchodilator FEV1, mean [12]: 2.24 L | Pre-bronchodilator FEV1, median [12]: 2.06 L | Pre-bronchodilator FEV1 change from baseline, Mean [12]: 0.10 L | Pre-bronchodilator FEV1 change from baseline, median [12]: 0.07 L | Pre-bronchodilator FEV1 percent change from baseline, mean [12]: 4.61% | Pre-bronchodilator FEV1 percent change from baseline, median [12]: 5.14% | Pre-bronchodilator FEV1, mean [13]: 2.10 L | Pre-bronchodilator FEV1, median [13]: 1.83 L | Pre-bronchodilator FEV1 change from baseline, Mean [13]: 0.08 L | Pre-bronchodilator FEV1 change from baseline, median [13]: 0.11 L | Pre-bronchodilator FEV1 percent change from baseline, mean [13]: 3.28% | Pre-bronchodilator FEV1 percent change from baseline, median [13]: 3.73% | Pre-bronchodilator FEV1, mean [14]: 2.09 L | Pre-bronchodilator FEV1, median [14]: 1.83 L | Pre-bronchodilator FEV1 change from baseline, LS Mean [14]: -0.00 L | Pre-bronchodilator FEV1 change from baseline, LS Mean Diff vs. placebo [14]: 0.02 L | Pre-bronchodilator FEV1 change from baseline, Mean [14]: 0.04 L | Pre-bronchodilator FEV1 change from baseline, median [14]: 0.05 L | Pre-bronchodilator FEV1, mean [15]: 2.08 L | Pre-bronchodilator FEV1, median [15]: 1.86 L | Pre-bronchodilator FEV1 change from baseline, Mean [15]: 0.08 L | Pre-bronchodilator FEV1 change from baseline, median [15]: 0.09 L | Pre-bronchodilator FEV1 percent change from baseline, mean [15]: 3.30% | Pre-bronchodilator FEV1 percent change from baseline, median [15]: 3.64% | Pre-bronchodilator FEV1, mean [16]: 2.29 L | Pre-bronchodilator FEV1, median [16]: 1.93 L | Pre-bronchodilator FEV1 change from baseline, Mean [16]: 0.21 L | Pre-bronchodilator FEV1 change from baseline, median [16]: 0.12 L | Pre-bronchodilator FEV1 percent change from baseline, mean [16]: 10.71% | Pre-bronchodilator FEV1 percent change from baseline, median [16]: 4.52% | Pre-bronchodilator FEV1, mean [17]: 2.24 L | Pre-bronchodilator FEV1, median [17]: 1.93 L | Pre-bronchodilator FEV1 change from baseline, LS Mean [17]: 0.02 L | Pre-bronchodilator FEV1 change from baseline, LS Mean Diff vs. placebo [17]: 0.06 L | Pre-bronchodilator FEV1 change from baseline, Mean [17]: 0.13 L | Pre-bronchodilator FEV1 change from baseline, median [17]: 0.09 L | Pre-bronchodilator FEV1, mean [18]: 2.29 L | Pre-bronchodilator FEV1, median [18]: 1.93 L | Pre-bronchodilator FEV1 change from baseline, Mean [18]: 0.21 L | Pre-bronchodilator FEV1 change from baseline, median [18]: 0.12 L | Pre-bronchodilator FEV1 percent change from baseline, mean [18]: 10.71% | Pre-bronchodilator FEV1 percent change from baseline, median [18]: 4.52% | Change from baseline in pre-bronchodilator FEV1, Mean [19]: -0.02 L | Change from baseline in pre-bronchodilator FEV1, Median [19]: -0.04 L | Pre-bronchodilator FEV1, Mean [19]: 2.01 L | Pre-bronchodilator FEV1, Median [19]: 1.88 L | Change from baseline in pre-bronchodilator FEV1, LS Mean (Week 12 (EOT), MMRM, mITT): -0.01 L | Change from baseline in pre-bronchodilator FEV1, LS Mean diff vs. placebo (Week 12 (EOT), MMRM, mITT): 0.00 L | Pre-bronchodilator FEV1, mean [20]: 2.01 L | Pre-bronchodilator FEV1, median [20]: 1.88 L | Pre-bronchodilator FEV1 change from baseline, Mean [20]: -0.02 L
